Laboratory results: ChEMBL document CHEMBL3421596, “A facile synthesis and microtubule-destabilizing properties of 4-(1H-benzo[d]imidazol-2-yl)-furazan-3-amines” (Eur J Med Chem, 2015)
Activity calls are given as the source filed them. The rule behind the calls is not given here.

Key:
NCI-H322M = experiment: Cytotoxicity against human NCI-H322M cells; format: functional
SNB-75 = experiment: Cytotoxicity against human SNB75 cells; format: functional
DU-145 = experiment: Cytotoxicity against human DU145 cells; format: functional
HOP-92 = experiment: Cytotoxicity against human HOP92 cells; format: functional
[1] = Cytotoxicity against human OVCAR4 cells; format: functional; conditions: OVCAR-4
U-251 = experiment: Cytotoxicity against human U251 cells; format: functional
IGROV-1 = experiment: Cytotoxicity against human IGROV1 cells; format: functional
CAKI-1 = experiment: Cytotoxicity against human Caki1 cells; format: functional
SNB-19 = experiment: Cytotoxicity against human SNB19 cells; format: functional
786-0 = experiment: Cytotoxicity against human 786-0 cells; format: functional
HOP-62 = experiment: Cytotoxicity against human HOP62 cells; format: functional
MDA-MB-435 = experiment: Cytotoxicity against human MDA-MB-435 cells; format: functional; conditions: read-out: pGI50 (converted)
CCRF-CEM = experiment: Cytotoxicity against human CCRF-CEM cells; format: functional
ACHN = experiment: Cytotoxicity against human ACHN cells; format: functional
[2] = Cytotoxicity against human UACC257 cells; format: functional; conditions: UACC-257
HT-29 = experiment: Cytotoxicity against human HT-29 cells; format: functional
NCI-H460 = experiment: Cytotoxicity against human NCI-H460 cells; format: functional
NCI-H226 = experiment: Cytotoxicity against human NCI-H226 cells; format: functional
SW-620 = experiment: Cytotoxicity against human SW620 cells; format: functional
SK-MEL-28 = experiment: Cytotoxicity against human SK-MEL-28 cells; format: functional
[3] = Cytotoxicity against human UACC62 cells; format: functional; conditions: UACC-62
[4] = Cytotoxicity against human OVCAR5 cells; format: functional; conditions: OVCAR-5
[5] = Cytotoxicity against human OVCAR8 cells; format: functional; conditions: OVCAR-8, read-out: pGI50 (converted)
Paracentrotus lividus [6] = experiment: Antiproliferative activity in sea urchin embryo assessed as antimitotic activity by measuring cleavage arrest exposed for 8 to 20 mins after fertilization and 45 to 55 mins before first mitotic cycle completion measured 2.5 to […] after fertilization; format: functional
Paracentrotus lividus [7] = experiment: Antiproliferative activity in sea urchin embryo assessed as antimitotic activity by measuring cleavage alteration exposed for 8 to 20 mins after fertilization and 45 to 55 mins before first mitotic cycle completion measured 2.5 to […] after fertilization; format: functional
[8] = Cytotoxicity against human OVCAR3 cells; format: functional; conditions: OVCAR-3, read-out: pGI50 (converted)
[9] = Cytotoxicity against human PC3 cells; format: functional; conditions: PC-3
A549 = experiment: Cytotoxicity against human A549 cells; format: functional
M14 = experiment: Cytotoxicity against human M14 cells; format: functional
SN12C = experiment: Cytotoxicity against human SN12C cells; format: functional
LOX IMVI = experiment: Cytotoxicity against human LOXIMVI cells; format: functional
SK-MEL-5 = experiment: Cytotoxicity against human SK-MEL-5 cells; format: functional
RXF 393 = experiment: Cytotoxicity against human RXF393 cells; format: functional; conditions: read-out: pGI50 (converted)
MDA-MB-468 = experiment: Cytotoxicity against human MDA-MB-468 cells; format: functional
SR = experiment: Cytotoxicity against human SR cells; format: functional
Malme-3M = experiment: Cytotoxicity against human MALME-3M cells; format: functional
SF-268 = experiment: Cytotoxicity against human SF268 cells; format: functional
[10] = Cytotoxicity against human SKOV3 cells; format: functional; conditions: SK-OV-3
A498 = experiment: Cytotoxicity against human A498 cells; format: functional
[11] = Cytotoxicity against human HCT116 cells; format: functional; conditions: HCT-116
Paracentrotus lividus [12] = experiment: Antiproliferative activity in sea urchin embryo assessed as destabilization of microtubule by measuring embryo spinning after 15 mins to 20 hrs; format: functional
RPMI-8226 = experiment: Cytotoxicity against human RPMI8226 cells; format: functional
SK-MEL-2 = experiment: Cytotoxicity against human SK-MEL-2 cells; format: functional
[13] = Cytotoxicity against human NCI60 cells; format: functional
K562 = experiment: Cytotoxicity against human K562 cells; format: functional
[14] = Cytotoxicity against human NCI-ADR-RES cells; format: functional; conditions: read-out: pGI50 (converted)
BT-549 = experiment: Cytotoxicity against human BT549 cells; format: functional
[15] = Cytotoxicity against human HCT15 cells; format: functional; conditions: HCT-15
COLO 205 = experiment: Cytotoxicity against human COLO205 cells; format: functional
HCC 2998 = experiment: Cytotoxicity against human HCC2998 cells; format: functional
NCI-H522 = experiment: Cytotoxicity against human NCI-H522 cells; format: functional
HL-60(TB) = experiment: Cytotoxicity against human HL-60(TB) cells; format: functional
MCF7 = experiment: Cytotoxicity against human MCF7 cells; format: functional
T47D = experiment: Cytotoxicity against human T47D cells; format: functional
MOLT-4 = experiment: Cytotoxicity against human MOLT4 cells; format: functional
TK-10 = experiment: Cytotoxicity against human TK10 cells; format: functional
NCI-H23 = experiment: Cytotoxicity against human NCI-H23 cells; format: functional
Paracentrotus lividus [16] = experiment: Antiproliferative activity in sea urchin embryo assessed as destabilization of microtubule by tuberculate eggs after 15 mins to 20 hrs; format: functional, organism-based
[17] = Cytotoxicity against human Hs578T cells; format: functional; conditions: Hs-578T
[18] = Cytotoxicity against human UO31 cells; format: functional; conditions: UO-31
MDA-MB-231 = experiment: Cytotoxicity against human MDA-MB-231 cells; format: functional
SF-539 = experiment: Cytotoxicity against human SF539 cells; format: functional; conditions: read-out: pGI50 (converted)
KM12 = experiment: Cytotoxicity against human KM12 cells; format: functional
SF-295 = experiment: Cytotoxicity against human SF295 cells; format: functional

`COc1cccc(Cn2c(-c3nonc3N)nc3ccccc32)c1` showed a GI50 (NCI-H322M) of 871 nM, a GI50 (SNB-75) of 295 nM and a GI50 (DU-145) of 603 nM. It also gave a GI50 (HOP-92) of 372 nM, a GI50 [1] of 8710 nM and a GI50 (U-251) of 437 nM. It also gave a GI50 (IGROV-1) of 603 nM, a GI50 (CAKI-1) of 417 nM and a GI50 (SNB-19) of 741 nM. The GI50 (786-0) was 437 nM, the GI50 (HOP-62) was 468 nM and the GI50 (MDA-MB-435) was 182 nM. For the same molecule, the GI50 (CCRF-CEM) was 339 nM, the GI50 (ACHN) was 550 nM and the GI50 [2] was 316 nM. The GI50 (HT-29) was 316 nM, the GI50 (NCI-H460) was 363 nM and the GI50 (NCI-H226) was 525 nM. It also gave a GI50 (SW-620) of 363 nM, a GI50 (SK-MEL-28) of 813 nM and a GI50 [3] of 513 nM. It also gave a GI50 [4] of 550 nM, a GI50 [5] of 525 nM and an EC (Paracentrotus lividus [6]) of 2 µM. It also gave an EC (Paracentrotus lividus [7]) of 0.2 µM, a GI50 [8] of 263 nM and a GI50 [9] of 447 nM. For the same molecule, the GI50 (A549) was 617 nM, the GI50 (M14) was 275 nM and the GI50 (SN12C) was 646 nM. It also gave a GI50 (LOX IMVI) of 537 nM, a GI50 (SK-MEL-5) of 331 nM and a GI50 (RXF 393) of 275 nM. It also gave a GI50 (MDA-MB-468) of 240 nM, a GI50 (SR) of 263 nM and a GI50 (Malme-3M) of 525 nM. For the same molecule, the GI50 (SF-268) was 759 nM, the GI50 [10] was 437 nM and the GI50 (A498) was 275 nM. The GI50 [11] was 389 nM, the EC (Paracentrotus lividus [12]) was >5 µM and the GI50 (RPMI-8226) was 363 nM. The GI50 (SK-MEL-2) was 288 nM, the GI50 [13] was 457 nM and the GI50 (K562) was 347 nM. It also gave a GI50 [14] of 316 nM, a GI50 (BT-549) of 363 nM and a GI50 [15] of 380 nM. The GI50 (COLO 205) was 372 nM, the GI50 (HCC 2998) was 1170 nM and the GI50 (NCI-H522) was 229 nM. It also gave a GI50 (HL-60(TB)) of 263 nM, a GI50 (MCF7) of 398 nM and a GI50 (T47D) of 501 nM. For the same molecule, the GI50 (MOLT-4) was 724 nM, the GI50 (TK-10) was 724 nM and the GI50 (NCI-H23) was 832 nM. The Activity (Paracentrotus lividus [16]) was “Active”, the GI50 [17] was 339 nM and the GI50 [18] was 589 nM. The GI50 (MDA-MB-231) was 955 nM, the GI50 (SF-539) was 214 nM and the GI50 (KM12) was 501 nM.

Work on `COc1cc(Cn2c(-c3nonc3N)nc3ccccc32)ccc1C` yielded a GI50 (NCI-H322M) of 537 nM, a GI50 (SNB-75) of 263 nM and a GI50 (DU-145) of 513 nM. For the same molecule, the GI50 (HOP-92) was 363 nM, the GI50 [1] was 646 nM and the GI50 (U-251) was 537 nM. The GI50 (IGROV-1) was 724 nM, the GI50 (SNB-19) was 724 nM and the GI50 (786-0) was 646 nM. For the same molecule, the GI50 (HOP-62) was 617 nM, the GI50 (MDA-MB-435) was 170 nM and the GI50 (CCRF-CEM) was 380 nM. It also gave a GI50 (ACHN) of 724 nM, a GI50 [2] of 417 nM and a GI50 (HT-29) of 363 nM. It also gave a GI50 (NCI-H460) of 355 nM, a GI50 (NCI-H226) of 955 nM and a GI50 (SW-620) of 331 nM. It also gave a GI50 (SK-MEL-28) of 794 nM, a GI50 [3] of 617 nM and a GI50 [4] of 776 nM. It also gave a GI50 [5] of 759 nM, an EC (Paracentrotus lividus [6]) of 2 µM and an EC (Paracentrotus lividus [7]) of 0.2 µM. For the same molecule, the GI50 [8] was 309 nM, the GI50 [9] was 339 nM and the GI50 (A549) was 562 nM. For the same molecule, the GI50 (M14) was 550 nM, the GI50 (SN12C) was 676 nM and the GI50 (LOX IMVI) was 661 nM. It also gave a GI50 (SK-MEL-5) of 372 nM, a GI50 (RXF 393) of 269 nM and a GI50 (MDA-MB-468) of 229 nM. The GI50 (SR) was 389 nM, the GI50 (Malme-3M) was 525 nM and the GI50 (SF-268) was 776 nM. It also gave a GI50 [10] of 537 nM, a GI50 (A498) of 89.1 nM and a GI50 [11] of 513 nM. The EC (Paracentrotus lividus [12]) was >4 µM, the GI50 (RPMI-8226) was 447 nM and the GI50 (SK-MEL-2) was 407 nM. For the same molecule, the GI50 [13] was 479 nM, the GI50 (K562) was 389 nM and the GI50 [14] was 389 nM. The GI50 (BT-549) was 513 nM, the GI50 [15] was 457 nM and the GI50 (COLO 205) was 372 nM. It also gave a GI50 (HCC 2998) of 1450 nM, a GI50 (NCI-H522) of 251 nM and a GI50 (HL-60(TB)) of 275 nM. For the same molecule, the GI50 (MCF7) was 389 nM, the GI50 (T47D) was 575 nM and the GI50 (MOLT-4) was 646 nM. For the same molecule, the GI50 (TK-10) was 1410 nM, the GI50 (NCI-H23) was 1150 nM and the Activity (Paracentrotus lividus [16]) was “Active”. For the same molecule, the GI50 [17] was 288 nM, the GI50 [18] was 575 nM and the GI50 (MDA-MB-231) was 1450 nM. For the same molecule, the GI50 (SF-539) was 200 nM, the GI50 (KM12) was 437 nM and the GI50 (SF-295) was 389 nM.
